{"source": "patent US20100210653A1", "about": "“Novel Compounds, Their Preparations and Use” (HIGH POINT PHARMACEUTICALS, LLC, priority 2004, published 2010)", "origin": "cited, not measured here", "key": {"[1]": {"tested_on": "high fat diet induced insulin resistant mice and diabetic ob/ob", "conditions": "PNAS 2003, 100, 15924-15929"}, "[2]": {"tested_on": "C2C12 muscle cells", "conditions": "in vitro treatment, two publications"}}}
{"compound": "Cc1cc(SCc2sc(-c3ccc(C(F)(F)F)cc3)nc2C)ccc1OCC(=O)O", "note": "[GW501516]", "values": [{"measurement": "insulin sensitivity", "setting": "[1]", "value": "improved insulin sensitivity"}, {"measurement": "plasma glucose and insulin", "setting": "[1]", "value": "lowering of plasma glucose and insulin"}, {"measurement": "regulation of genes (LPL, ACS4, CTP1, PDK4, UCP1, -2, -3, ABCA1/G1)", "setting": "[2]", "value": "regulation of genes involved with TG hydrolysis and FFA oxidation"}]}
